Measurements reported in patent US10695366B2 (ZS PHARMA, INC., priority 2013, dated 2020).

Test system: beagles
Conditions: dog, in vivo
Method: The following 14-day study is designed to show the effect of particle size and particle form on the urinary pH and presence of crystals in the urine. The compounds above are administered to beagles orally by mixing with wet dog food. The regimen is administered 3 times a day at 6 hour intervals over a 12 hour period in the following manner:
The dose levels were 100 or 600 mg/kg/dose.

- test article-related findings (direct or indirect), microscopic: not present
Substance: microporous zirconium silicate [ZS-9]
